In ChEMBL document CHEMBL2062390, “3-Phenyl-1H-5-pyrazolylamine-based derivatives as potent and efficacious inhibitors of FMS-like tyrosine kinase-3 (FLT3)” (Bioorg Med Chem Lett, 2012):
Calls of active or inactive are those of the source. The rule behind the calls is not given here.

Legend:
[1] = molecular target: T1, Receptor-type tyrosine-protein kinase FLT3 (Homo sapiens, UniProt P36888)
T1 sequence (P36888 whole entry): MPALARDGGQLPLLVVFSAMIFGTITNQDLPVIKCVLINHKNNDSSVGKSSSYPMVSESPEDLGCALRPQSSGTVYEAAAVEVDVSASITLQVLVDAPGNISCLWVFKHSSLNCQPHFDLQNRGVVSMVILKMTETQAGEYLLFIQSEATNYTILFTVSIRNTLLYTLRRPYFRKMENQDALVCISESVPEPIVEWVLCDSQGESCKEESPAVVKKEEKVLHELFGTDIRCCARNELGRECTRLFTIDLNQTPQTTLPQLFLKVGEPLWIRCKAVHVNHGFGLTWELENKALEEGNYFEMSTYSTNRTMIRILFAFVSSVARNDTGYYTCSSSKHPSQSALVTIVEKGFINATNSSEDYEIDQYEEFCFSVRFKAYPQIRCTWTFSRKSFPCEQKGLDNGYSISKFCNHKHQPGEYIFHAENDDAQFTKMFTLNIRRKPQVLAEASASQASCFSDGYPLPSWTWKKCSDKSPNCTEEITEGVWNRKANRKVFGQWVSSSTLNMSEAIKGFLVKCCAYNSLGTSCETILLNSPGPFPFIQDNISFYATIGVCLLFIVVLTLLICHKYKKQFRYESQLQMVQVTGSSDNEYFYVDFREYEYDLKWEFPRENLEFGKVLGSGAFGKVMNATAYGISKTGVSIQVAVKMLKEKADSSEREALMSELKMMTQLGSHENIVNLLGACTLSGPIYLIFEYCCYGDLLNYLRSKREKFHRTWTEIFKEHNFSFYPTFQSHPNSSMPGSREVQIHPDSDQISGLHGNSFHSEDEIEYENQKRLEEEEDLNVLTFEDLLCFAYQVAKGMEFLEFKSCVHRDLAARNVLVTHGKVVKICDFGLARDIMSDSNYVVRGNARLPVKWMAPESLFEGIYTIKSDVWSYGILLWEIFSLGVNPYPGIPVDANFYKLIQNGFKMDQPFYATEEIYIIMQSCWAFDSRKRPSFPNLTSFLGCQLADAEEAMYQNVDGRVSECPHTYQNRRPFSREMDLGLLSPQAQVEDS
Description: Inhibition of wild type FLT3

[2] = molecular target: Vascular endothelial growth factor receptor 2 (Homo sapiens, UniProt P35968)
Sequence of Vascular endothelial growth factor receptor 2 (P35968 whole entry): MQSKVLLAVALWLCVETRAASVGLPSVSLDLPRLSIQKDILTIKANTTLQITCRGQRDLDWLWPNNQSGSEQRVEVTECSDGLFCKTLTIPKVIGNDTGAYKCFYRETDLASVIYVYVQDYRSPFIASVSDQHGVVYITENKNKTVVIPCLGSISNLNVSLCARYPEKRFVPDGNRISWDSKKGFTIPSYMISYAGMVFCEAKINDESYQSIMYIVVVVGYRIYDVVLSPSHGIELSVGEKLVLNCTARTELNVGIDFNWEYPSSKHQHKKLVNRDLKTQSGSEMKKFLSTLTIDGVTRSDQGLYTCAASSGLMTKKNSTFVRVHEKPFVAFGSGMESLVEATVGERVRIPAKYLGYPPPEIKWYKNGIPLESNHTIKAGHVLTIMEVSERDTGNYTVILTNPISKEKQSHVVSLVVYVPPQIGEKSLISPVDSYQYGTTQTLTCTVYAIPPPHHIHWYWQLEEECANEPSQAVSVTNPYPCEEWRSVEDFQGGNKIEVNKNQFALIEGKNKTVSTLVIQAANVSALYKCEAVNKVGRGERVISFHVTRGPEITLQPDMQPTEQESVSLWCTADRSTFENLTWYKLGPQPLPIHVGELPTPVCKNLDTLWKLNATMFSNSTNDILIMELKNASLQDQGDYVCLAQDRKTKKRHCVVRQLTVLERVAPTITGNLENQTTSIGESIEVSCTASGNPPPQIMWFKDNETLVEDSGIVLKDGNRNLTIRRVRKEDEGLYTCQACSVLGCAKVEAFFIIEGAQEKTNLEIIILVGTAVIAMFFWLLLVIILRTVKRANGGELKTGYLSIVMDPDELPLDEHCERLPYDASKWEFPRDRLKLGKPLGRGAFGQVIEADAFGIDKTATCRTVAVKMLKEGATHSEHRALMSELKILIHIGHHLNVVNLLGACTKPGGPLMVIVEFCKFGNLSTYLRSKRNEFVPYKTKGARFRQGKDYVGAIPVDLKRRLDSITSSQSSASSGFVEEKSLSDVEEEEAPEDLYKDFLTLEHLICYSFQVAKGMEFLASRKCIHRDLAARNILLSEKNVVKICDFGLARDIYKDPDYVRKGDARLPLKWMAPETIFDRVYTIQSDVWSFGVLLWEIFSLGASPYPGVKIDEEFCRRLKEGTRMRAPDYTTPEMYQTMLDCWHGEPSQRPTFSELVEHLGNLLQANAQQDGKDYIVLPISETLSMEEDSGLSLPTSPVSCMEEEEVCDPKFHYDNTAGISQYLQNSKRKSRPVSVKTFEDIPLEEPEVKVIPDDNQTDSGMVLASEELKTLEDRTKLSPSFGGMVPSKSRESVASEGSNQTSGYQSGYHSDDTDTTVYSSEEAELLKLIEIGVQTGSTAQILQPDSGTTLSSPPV

[3] = AUC (0 to 4 hrs) in rat at 2 mg/kg, iv; format: ADME, organism-based; design: time < 4 hr, dose 2 mg/kg, route intravenous; details: plasma
[4] = molecular target: Vascular endothelial growth factor receptor 1 (Homo sapiens, UniProt P17948)
Sequence of Vascular endothelial growth factor receptor 1 (P17948 whole entry): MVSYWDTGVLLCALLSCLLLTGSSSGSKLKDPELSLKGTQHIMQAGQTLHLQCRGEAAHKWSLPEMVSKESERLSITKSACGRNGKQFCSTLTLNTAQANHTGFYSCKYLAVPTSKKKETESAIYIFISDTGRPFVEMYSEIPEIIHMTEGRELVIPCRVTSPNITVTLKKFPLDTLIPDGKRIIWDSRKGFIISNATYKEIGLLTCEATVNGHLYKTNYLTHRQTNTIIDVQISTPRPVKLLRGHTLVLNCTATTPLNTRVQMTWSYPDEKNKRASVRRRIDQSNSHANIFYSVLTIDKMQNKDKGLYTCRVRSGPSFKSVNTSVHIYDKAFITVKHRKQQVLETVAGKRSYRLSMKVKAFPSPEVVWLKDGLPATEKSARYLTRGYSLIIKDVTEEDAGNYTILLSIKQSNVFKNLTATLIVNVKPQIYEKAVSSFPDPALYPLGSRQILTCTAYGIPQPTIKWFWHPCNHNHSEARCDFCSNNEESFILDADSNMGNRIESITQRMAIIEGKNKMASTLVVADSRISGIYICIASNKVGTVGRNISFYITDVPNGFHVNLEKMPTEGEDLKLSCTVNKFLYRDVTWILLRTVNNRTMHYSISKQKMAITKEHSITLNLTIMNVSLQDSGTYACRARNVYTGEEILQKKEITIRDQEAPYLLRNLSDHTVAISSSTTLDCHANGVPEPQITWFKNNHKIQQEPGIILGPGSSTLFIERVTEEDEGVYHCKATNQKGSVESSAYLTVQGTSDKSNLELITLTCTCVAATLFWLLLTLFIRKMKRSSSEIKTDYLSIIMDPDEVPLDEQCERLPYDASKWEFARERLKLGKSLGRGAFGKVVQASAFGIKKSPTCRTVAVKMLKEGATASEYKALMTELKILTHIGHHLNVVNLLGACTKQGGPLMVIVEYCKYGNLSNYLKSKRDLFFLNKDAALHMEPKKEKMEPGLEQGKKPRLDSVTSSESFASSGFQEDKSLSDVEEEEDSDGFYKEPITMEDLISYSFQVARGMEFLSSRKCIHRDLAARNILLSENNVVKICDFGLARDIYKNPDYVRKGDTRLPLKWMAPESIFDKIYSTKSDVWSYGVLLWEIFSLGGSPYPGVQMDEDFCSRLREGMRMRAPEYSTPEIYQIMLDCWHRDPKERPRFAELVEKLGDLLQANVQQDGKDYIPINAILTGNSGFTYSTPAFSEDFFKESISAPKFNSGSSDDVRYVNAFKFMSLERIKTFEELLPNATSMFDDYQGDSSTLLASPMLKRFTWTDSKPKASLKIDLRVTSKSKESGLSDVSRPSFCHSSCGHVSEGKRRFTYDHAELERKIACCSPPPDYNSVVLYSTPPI

Aurora kinase A = molecular target: T2, Aurora kinase A (Homo sapiens, UniProt O14965)
T2 sequence (O14965 whole entry): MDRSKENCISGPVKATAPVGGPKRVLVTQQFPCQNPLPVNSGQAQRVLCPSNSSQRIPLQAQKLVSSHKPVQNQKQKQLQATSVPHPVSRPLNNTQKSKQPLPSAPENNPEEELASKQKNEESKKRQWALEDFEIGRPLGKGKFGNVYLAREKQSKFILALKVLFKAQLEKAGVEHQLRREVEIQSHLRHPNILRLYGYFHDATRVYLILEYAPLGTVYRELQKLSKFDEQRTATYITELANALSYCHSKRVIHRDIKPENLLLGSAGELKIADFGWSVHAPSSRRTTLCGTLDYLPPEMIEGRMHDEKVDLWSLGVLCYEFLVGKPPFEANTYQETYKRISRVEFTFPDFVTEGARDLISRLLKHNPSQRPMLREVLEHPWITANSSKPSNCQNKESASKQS

MOLM-13 [5] = experiment: cells; details: Homo sapiens
Description: Antiproliferative activity against human MOLM13 cells expressing FLT3-ITD mutant

[6] = Plasma concentration in Sprague-Dawley rat at 2 mg/kg, iv at 24 hrs; format: ADME, organism-based; design: dose 2 mg/kg, route intravenous
[7] = Volume of distribution in Sprague-Dawley rat at 2 mg/kg, iv; format: ADME, organism-based; design: dose 2 mg/kg, route intravenous; details: in vivo
[8] = Plasma clearance in Sprague-Dawley rat at 2 mg/kg, iv; format: ADME, organism-based; design: dose 2 mg/kg, route intravenous
[9] = Half life in Sprague-Dawley rat plasma at 2 mg/kg, iv; format: ADME, organism-based; design: dose 2 mg/kg, route intravenous
[10] = Oral bioavailability in Sprague-Dawley rat; format: ADME, organism-based; details: in vivo
MOLM-13 [11] = experiment: Antitumor activity against human MOLM13 cells expressing FLT3-ITD mutant xenografted in athymic nude NU-Fox1 mouse assessed as tumor regression at 25 mg/kg, iv administered as single dose; format: functional, organism-based; design: dose 25 mg/kg
MOLM-13 [12] = experiment: Antitumor activity against human MOLM13 cells expressing FLT3-ITD mutant xenografted in athymic nude NU-Fox1 mouse assessed as tumor regression at 25 mg/kg, iv administered QD on days 1 to 5 and 8 to 12 measured up to 30 days; format: functional, organism-based; design: dose 25 mg/kg
Mus musculus = experiment: Toxicity in athymic nude NU-Fox1 mouse xenografted with human MOLM-13 cells assessed as body weight loss at 25 mg/kg, iv administered QD on days 1 to 5 and 8 to 12 measured up to 30 days; format: organism-based; design: dose 25 mg/kg, route intravenous; details: in vivo, 720 h
MV4-11 = experiment: Antiproliferative activity against human MV4-11 cells expressing FLT3-ITD mutant; format: functional
[13] = molecular target: Receptor-type tyrosine-protein kinase FLT3 (Homo sapiens) (UniProt P36888); experiment: (§1) Inhibition of FLT3 autophosphorylation in human MV4-11 cells after 2 hrs by Western blot analysis; format: cell-based
[14] = molecular target: T1, Receptor-type tyrosine-protein kinase FLT3; experiment: as §1; format: cell-based
[15] = Cmax in Sprague-Dawley rat at 2 mg/kg, iv at 5 mins; format: ADME, organism-based; design: dose 2 mg/kg, route intravenous; details: in vivo
[16] = AUC in Sprague-Dawley rat at 2 mg/kg, iv; format: ADME, organism-based; design: dose 2 mg/kg, route intravenous; details: plasma

IC50 [1]	IC50 [2]	IC50 [4]	IC50 (Aurora kinase A)	GI50 (MOLM-13 [5])	SMILES	further results
43 nM	480 nM	590 nM	> 1000 nM	2 nM	Cc1cc(COC(=O)NCc2ccc(-c3cc(NC(=O)c4ccc(OCCN5CCCC5)cc4)[nH]n3)cc2)no1	AUC(0-t) at 4 h [3]: 448 ng·h/mL
7 nM	170 nM	320 nM	> 1000 nM	4 nM	CN1CCN(Cc2ccc(C(=O)Nc3cc(-c4ccc(CNC(=O)OCc5ccccc5)cc4)n[nH]3)cc2)CC1	–
10 nM	240 nM	290 nM	170 nM	2 nM	Cc1nc(Nc2cc(-c3ccc(CNC(=O)OCc4ccccc4)cc3)n[nH]2)cc(N2CCN(CCO)CC2)n1	–
14 nM	220 nM	250 nM	> 1000 nM	2 nM	CN1CCN(c2ccc(C(=O)Nc3cc(-c4ccc(CNC(=O)OCc5cccnc5)cc4)n[nH]3)cc2)CC1	AUC(0-t) at 4 h [3]: 272 ng·h/mL
27 nM	370 nM	350 nM	> 1000 nM	1 nM	Cc1cc(COC(=O)NCc2ccc(-c3cc(NC(=O)c4ccc(N5CCN(C)CC5)cc4)[nH]n3)cc2)no1	–
10 nM	120 nM	70 nM	> 1000 nM	2 nM	O=C(NCc1ccc(-c2cc(NC(=O)c3ccc(OCCN4CCCC4)cc3)[nH]n2)cc1)OCc1ccccc1	concentration at 24 h [6]: 17 nM; Vd [7]: 6 L/kg; clearance [8]: 16.2 mL/min/kg; half-life [9]: 6.2 h; bioavailability [10]: 5%; Activity (MOLM-13 [11]): Active; Activity (MOLM-13 [12]): Active; Activity (Mus musculus): Non-toxic; GI50 (MV4-11): 3 nM; inhibition [13]: Dose-dependent effect; IC50 [14]: 1 nM; AUC(0-t) at 4 h [3]: 1380 ng·h/mL; Cmax [15]: 5430 nM; AUC [16]: 5.79 µM·h
18 nM	310 nM	420 nM	430 nM	2 nM	Cc1nc(Nc2cc(-c3ccc(CNC(=O)OCc4ccccc4)cc3)n[nH]2)cc(N2CCN(C)CC2)n1	–
6 nM	100 nM	20 nM	880 nM	2 nM	CN1CCN(c2ccc(C(=O)Nc3cc(-c4ccc(CNC(=O)OCc5ccccc5)cc4)n[nH]3)cc2)CC1	–
4 nM	> 1000 nM	> 1000 nM	> 1000 nM	2 nM	Cc1nc(Nc2cc(-c3ccc(CNC(=O)OCc4cccnc4)cc3)n[nH]2)cc(N2CCN(C)CC2)n1	–
72 nM	> 1000 nM	> 1000 nM	> 1000 nM	5 nM	Cc1nc(Nc2cc(-c3ccc(CNC(=O)OCc4cc(C)on4)cc3)n[nH]2)cc(N2CCN(CCO)CC2)n1	AUC(0-t) at 4 h [3]: 443 ng·h/mL
35 nM	> 1000 nM	> 1000 nM	> 1000 nM	8 nM	O=C(NCc1ccc(-c2cc(NC(=O)c3ccc(OCCN4CCCC4)cc3)[nH]n2)cc1)OCc1cccnc1	AUC(0-t) at 4 h [3]: 266 ng·h/mL
17 nM	190 nM	82 nM	350 nM	6 nM	Cc1nc(Nc2cc(-c3ccc(CNC(=O)OCc4ccccc4)cc3)n[nH]2)cc(N2CCNCC2)n1	–
19 nM	240 nM	180 nM	> 1000 nM	9 nM	O=C(NCc1ccc(-c2cc(NC(=O)c3ccc(OCCCN4CCCC4)cc3)[nH]n2)cc1)OCc1ccccc1	–
7 nM	48 nM	200 nM	> 1000 nM	16 nM	CN1CCN(c2ccc(C(=O)Nc3cc(-c4ccc(NC(=O)OCc5ccccc5)cc4)n[nH]3)cc2)CC1	–
17 nM	370 nM	370 nM	590 nM	8 nM	O=C(NCc1ccc(-c2cc(NC(=O)c3ccc(OCCN4CCOCC4)cc3)[nH]n2)cc1)OCc1ccccc1	–
52 nM	> 1000 nM	> 1000 nM	> 1000 nM	4 nM	Cc1cc(COC(=O)NCc2ccc(-c3cc(NC(=O)c4ccc(OCCN5CCOCC5)cc4)[nH]n3)cc2)no1	AUC(0-t) at 4 h [3]: 1030 ng·h/mL
17 nM	560 nM	> 1000 nM	> 1000 nM	48 nM	CCOC(=O)NCc1ccc(-c2cc(NC(=O)c3ccc(N4CCN(C)CC4)cc3)[nH]n2)cc1	–
21 nM	> 1000 nM	> 1000 nM	> 1000 nM	3 nM	Cc1nc(Nc2cc(-c3ccc(CNC(=O)OCc4cccnc4)cc3)n[nH]2)cc(N2CCN(CCO)CC2)n1	–
20 nM	> 1000 nM	> 1000 nM	> 1000 nM	7 nM	O=C(NCc1ccc(-c2cc(NC(=O)c3ccc(OCCN4CCOCC4)cc3)[nH]n2)cc1)OCc1cccnc1	–

SMILES	IC50 [1]	IC50 [2]	IC50 [4]	IC50 (Aurora kinase A)	GI50 (MOLM-13 [5])	further results
CN1CCN(c2ccc(C(=O)Nc3cc(-c4ccc(NS(=O)(=O)c5ccccc5)cc4)n[nH]3)cc2)CC1	–	> 1000 nM	> 1000 nM	> 1000 nM	500 nM	–
CN1CCN(c2ccc(C(=O)Nc3cc(-c4ccc(CNS(=O)(=O)c5ccccc5)cc4)n[nH]3)cc2)CC1	140 nM	> 1000 nM	> 1000 nM	1000 nM	47 nM	–
CN1CCN(c2ccc(C(=O)Nc3cc(-c4ccc(CNC(=O)Oc5ccccc5)cc4)n[nH]3)cc2)CC1	16 nM	92 nM	54 nM	> 1000 nM	20 nM	–
Cc1nc(Nc2cc(-c3ccc(CNC(=O)OCc4cc(C)on4)cc3)n[nH]2)cc(N2CCN(C)CC2)n1	5 nM	> 1000 nM	> 1000 nM	> 1000 nM	4 nM	–
O=C(Nc1ccc(-c2cc(NC(=O)c3ccc(OCCN4CCCC4)cc3)[nH]n2)cc1)Oc1ccccc1	40 nM	300 nM	> 1000 nM	> 1000 nM	47 nM	–
CN1CCN(c2ccc(C(=O)Nc3cc(-c4ccc(NC(=O)Oc5ccccc5)cc4)n[nH]3)cc2)CC1	12 nM	180 nM	320 nM	> 1000 nM	5 nM	–
